Data: the NIST ThermoML archive (doi:10.1016/j.jct.2013.03.003)
± gives the expanded uncertainty stated by the source.

Assay: osmotic coefficient (dimensionless); mn = molality of the nth substance listed, in mol/kg
Settings: 298.15 K, Liquid, isopiestic method

[Br-].[K+] [potassium bromide] + O
Settings | osmotic coefficient
m1 = 2.545 | 0.9434 ± 0.0029
m1 = 2.703 | 0.9473 ± 0.0027
m1 = 2.947 | 0.9544 ± 0.0023
m1 = 3.171 | 0.9579 ± 0.0021
m1 = 3.46 | 0.965 ± 0.0019
m1 = 3.778 | 0.9757 ± 0.0015
m1 = 4.026 | 0.9849 ± 0.0011
m1 = 4.214 | 0.9911 ± 0.0009
m1 = 4.694 | 1.0054 ± 0.001
m1 = 5.41 | 1.032 ± 0.002
